Molecular target: Indoleamine 2,3-dioxygenase 1 (Homo sapiens, UniProt P14902)
Experiment: Inhibition of IDO1 (unknown origin)

Chain of Indoleamine 2,3-dioxygenase 1 (P14902 whole entry): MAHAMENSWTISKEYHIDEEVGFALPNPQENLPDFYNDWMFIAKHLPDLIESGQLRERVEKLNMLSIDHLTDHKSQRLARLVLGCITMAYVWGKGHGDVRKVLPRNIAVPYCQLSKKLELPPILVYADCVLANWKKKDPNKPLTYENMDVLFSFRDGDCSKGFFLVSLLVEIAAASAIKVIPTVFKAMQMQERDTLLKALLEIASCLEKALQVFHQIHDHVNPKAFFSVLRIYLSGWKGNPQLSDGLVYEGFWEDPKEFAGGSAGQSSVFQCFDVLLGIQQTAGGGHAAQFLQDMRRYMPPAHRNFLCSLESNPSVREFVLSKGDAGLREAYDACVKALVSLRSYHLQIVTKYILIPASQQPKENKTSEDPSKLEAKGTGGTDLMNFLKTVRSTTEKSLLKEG

SMILES: O[C@@H](C[C@H]1c2sccc2-c2cncn21)C1CCC(F)(F)CC1
- IC50: 11 nM

From BindingDB's records for PubMed 34752953 (Zhengzhou University, 2022)
